The text below walks through data of article PMC7168933, “Design, Synthesis and Biochemical Evaluation of Novel Ethanoanthracenes and Related Compounds to Target Burkitt’s Lymphoma” (Pharmaceuticals, 2020).

A value given as a limit tells only on which side of the number the result lay.

The test system of data set [1] is MUTU-1 Burkitt lymphoma cell line (EBV+). Particulars: 24 h.
For data set [2] the test system is unchanged. The data set can be described thus: cells. The settings on record: Mutu-1, 24 h; for viability at 1 µM: read-out: MUTU-1 Cell Viability % 1 μM, 1 μM, 24 h; for viability at 10 µM: read-out: MUTU-1 Cell Viability % 10 μM, 10 μM, 24 h; for IC50: read-out: IC50 MUTU-I 24 h.
Data set [3] concerns DG-75 Burkitt lymphoma cell line (EBV−, chemoresistant). In words: cells. Particulars: Homo sapiens, DG-75, 48 h; for viability at 1 µM: read-out: DG-75 Cell Viability % 1 μM, 1 μM, 48 h; for viability at 10 µM: read-out: DG-75 Cell Viability % 10 μM, 10 μM, 48 h.

For `OCC12c3ccccc3C(c3ccccc31)c1ccccc12` [Compound 20g], the “cell viability in MUTU-I cell line (1 and 10 μM together or concentration not stated)” value in data set [1] was “inactive”. Also, in data set [2], the viability at 1 µM was found to be 101% and the viability at 10 µM amounted to 103%. Also, in data set [3], the viability at 1 µM was determined as 97% and the viability at 10 µM turned out to be 68.7%.

For `O=[N+]([O-])/C=C/C12c3ccccc3C(c3ccccc31)c1ccccc12` [Compound 20a, (E)-9-(2-nitrovinyl)-9,10-dihydro-9,10-[1,2]benzenoanthracene], the “cell viability in MUTU-I cell line (1 and 10 μM together or concentration not stated)” value in data set [1] is listed as below 6%. In data set [2], the viability at 1 µM worked out at 6% and the viability at 10 µM was 1.3%. In data set [3], the viability at 1 µM came out at 90.2% and the viability at 10 µM was found to be 0.091%.

Turning to `O=CC12c3ccccc3C(c3ccccc31)c1ccccc12` [Compound 20f], the “MUTU-1 Cell Viability % 10 μM” value in data set [1] (10 μM) is on record as 5.4%. Further, in data set [2], the viability at 1 µM amounted to 97.9% and the viability at 10 µM was below 5%. Moreover, in data set [3], the viability at 1 µM stood at 72.9% and the viability at 10 µM was determined as 81.7%.

Consider `CC/C(=C\C12c3ccccc3C(Cl)(c3ccccc31)C1C(=O)NC(=O)C12)[N+](=O)[O-]` (centres unmarked) [Compound 13l, (E)-9-Chloro-10-(2-nitrobut-1-en-1-yl)-9,10-dihydro-9,10-[3,4]epipyrroloanthracene-12,14-dione], for which the melting point fell in the range of 294 to 298 °C. In data set [2], the viability at 1 µM is 88.6% and the viability at 10 µM was determined as 88.3%. Besides, in data set [3], the viability at 1 µM came to 90% and the viability at 10 µM came to 102%.

With `CC/C(=C\C12c3ccccc3C(c3ccccc31)C1C(=O)N(Cc3cc(OC)c(OC)c(OC)c3)C(=O)C12)[N+](=O)[O-]` (centres unmarked) [Compound 17m, (E)-9-(2-Nitrobut-1-en-1-yl)-13-(3,4,5-trimethoxybenzyl)-9,10-dihydro-9,10-[3,4]epipyrroloanthracene-12,14-dione], the melting point was 224 to 229 °C. Also, in data set [2], the viability at 1 µM was found to be 82.2% and the viability at 10 µM was 66.8%. Also, in data set [3], the viability at 1 µM worked out at 82.2% and the viability at 10 µM came out at 77.8%.

Compound `CC/C(=C\C12c3ccccc3C(c3ccccc31)C1C(=O)N(c3ccccc3)C(=O)C12)[N+](=O)[O-]` (centres unmarked) [Compound 17b, (E)-9-(2-Nitrobut-1-en-1-yl)-13-phenyl-9,10-dihydro-9,10-[3,4]epipyrroloanthracene-12,14-dione] registered a melting point of 259 to 263 °C. Moreover, in data set [2], the viability at 1 µM came out at 92.6% and the viability at 10 µM was 83.4%. In data set [3], the viability at 1 µM came out at 96.4% and the viability at 10 µM is 99.9%.

In turn, `CC(=O)Oc1cccc(N2C(=O)C3C4c5ccccc5C(/C=C/[N+](=O)[O-])(c5ccccc54)C3C2=O)c1` (centres unmarked) [Compound 16m, (E)-3-(9-(2-Nitrovinyl)-12,14-dioxo-9,10-dihydro-9,10-[3,4]epipyrroloanthracen-13-yl)phenyl acetate] yielded a melting point of 246 to 248 °C. For the same compound, in data set [2], the IC50 was 230 nM, the viability at 1 µM came to 2% and the viability at 10 µM was 1.2%. For the same compound, in data set [3], the viability at 1 µM worked out at 35.9% and the viability at 10 µM worked out at 0%.

In turn, `C/C(=C\C12c3ccccc3C(c3ccccc31)C1C(=O)N(c3ccccc3)C(=O)C12)[N+](=O)[O-]` (centres unmarked) [Compound 17a, (E)-9-(2-Nitroprop-1-en-1-yl)-13-phenyl-9,10-dihydro-9,10-[3,4]epipyrroloanthracene-12,14-dione] gave a melting point of 263 to 266 °C. In addition, in data set [2], the viability at 1 µM is 79.8% and the viability at 10 µM came out at 68.6%. Further, in data set [3], the viability at 1 µM is 78.3% and the viability at 10 µM is 88.9%.

`O=C1OC(=O)C2C1C1(Cl)c3ccccc3C2(/C=C/[N+](=O)[O-])c2ccccc21` (centres unmarked) [Compound 13d, (E)-9-Chloro-10-(2-nitrovinyl)-9,10-dihydro-9,10-[3,4]furanoanthracene-12,14-dione] displayed a melting point of 275 to 277 °C. For the same compound, in data set [2], the viability at 1 µM turned out to be 35.6% and the viability at 10 µM turned out to be 43.5%. Besides, in data set [3], the viability at 1 µM was determined as 98.7% and the viability at 10 µM turned out to be 102%.

For the compound `O=C1NC(=O)C2C1C1c3ccccc3C2(CC[N+](=O)[O-])c2ccccc21` (centres unmarked) [Compound 14b, 9-(2-Nitroethyl)-9,10-dihydro-9,10-[3,4]epipyrroloanthracene-12,14-dione], the melting point was 295 to 297 °C. In data set [2], the viability at 1 µM is 58.5% and the viability at 10 µM worked out at 95%. For the same compound, in data set [3], the viability at 1 µM worked out at 79.3% and the viability at 10 µM amounted to 101%.

Turning to `O=C1C2C3c4ccccc4C(/C=C/[N+](=O)[O-])(c4ccccc43)C2C(=O)N1c1ccccc1O` (centres unmarked) [Compound 16l, (E)-13-(2-Hydroxyphenyl)-9-(2-nitrovinyl)-9,10-dihydro-9,10-[3,4]epipyrroloanthracene-12,14-dione], the melting point was in the range of 203 to 206 °C. For the same compound, in data set [2], the viability at 1 µM was determined as 2.3% and the viability at 10 µM turned out to be 0.61%. Also, in data set [3], the viability at 1 µM came to 59.2% and the viability at 10 µM amounted to 0%.

For `O=C1C2C3c4ccccc4C(/C=C/[N+](=O)[O-])(c4ccccc43)C2C(=O)N1c1ccc(F)cc1` (centres unmarked) [Compound 16e, (E)-13-(4-Fluorophenyl)-9-(2-nitrovinyl)-9,10-dihydro-9,10-[3,4]epipyrroloanthracene-12,14-dione], the melting point is 242 to 243 °C. In addition, in data set [2], the half-inhibitory concentration (IC50) came out at 250 nM, the viability at 1 µM is 0.07% and the viability at 10 µM amounted to 1.4%. Moreover, in data set [3], the viability at 1 µM came to 35.4% and the viability at 10 µM turned out to be 2.3%.

On to `CC/C(=C\C12c3ccccc3C(Cl)(c3ccccc31)C1C(=O)OC(=O)C12)[N+](=O)[O-]` (centres unmarked) [Compound 13f, (E)-9-Chloro-10-(2-nitrobut-1-en-1-yl)-9,10-dihydro-9,10-[3,4]furanoanthracene-12,14-dione], for which the melting point fell in the range of 259 to 263 °C. Besides, in data set [2], the viability at 1 µM worked out at 85.3% and the viability at 10 µM was 91.6%. In data set [3], the viability at 1 µM came out at 79.9% and the viability at 10 µM turned out to be 95.1%.

The compound `O=C1NC(=O)C2C1C1c3ccccc3C2(O)c2ccccc21` (centres unmarked) [Compound 21k, 9-Hydroxy-9,10-dihydro-9,10-[3,4]epipyrroloanthracene-12,14-dione] came in with a melting point of 253 to 255 °C. Also, in data set [2], the viability at 1 µM came out at 104% and the viability at 10 µM stood at 100%. In addition, in data set [3], the viability at 1 µM amounted to 65.9% and the viability at 10 µM is 80.9%.

For the compound `C/C(=C\C12c3ccccc3C(c3ccccc31)C1C(=O)NC(=O)C12)[N+](=O)[O-]` (centres unmarked) [Compound 13h, (E)-9-(2-Nitroprop-1-en-1-yl)-9,10-dihydro-9,10-[3,4]epipyrroloanthracene-12,14-dione], the melting point is 296 to 300 °C. For the same compound, in data set [2], the viability at 1 µM was determined as 99.7% and the viability at 10 µM was 82.6%. Besides, in data set [3], the viability at 1 µM stood at 106% and the viability at 10 µM is 101%.

As a reminder, the viability is a read-out of living cells in per cent, often relative to untreated cells. The melting point is the temperature of the solid-liquid transition. A word on the IC50: it is the concentration that inhibits the measured activity by half.
